pKi: −log10 of the molar value. Read-outs that look alike come from different tables or passages of the source.
Assays:
cavernous nerve = test: Intracavernosal pressure (ICP) response to electrostimulation after cavernous nerve crush injury; type: in vivo, Sprague-Dawley rats; details: for ICP response, Control side: control (intact) side; for ICP response, Control side / ICP response, Crush side: 1 day following R-cavernous nerve crush, i.p., FK506 1 mg/kg, Compound 153 15 mg/kg, +/- sem; for ICP response, Crush side: crush (injured) side
Description: (§1) Cavernous nerve injury was performed in 12 week old Sprague-Dawley rats by crushing the right cavernous nerve for 3×15 seconds with a fine tip forceps. The rats were treated with saline or Compound 153 (15 mg/kg i.p.) just prior to nerve crush. The right and left major pelvic ganglia were processed for nNOS immunoreactivity. Intracavernosal pressure (ICP) responses to electrostimulation of the right (injured) and left (intact) cavernous nerves were recorded for each animal at 24 hours or 7 days post injury.

sciatic nerve = details: rats with crushed sciatic nerves; Gold et al. 1994/1995, Steiner et al. 1997; cited from earlier work
FKBP12 = FKBP12 (Homo sapiens, UniProt P62942); test: K1 test procedure: inhibition of peptidyl-prolyl isomerase (rotamase) activity of FKBP12, chymotrypsin-coupled assay; type: biochemical
FKBP12, sequence (P62942 whole entry, species assumed): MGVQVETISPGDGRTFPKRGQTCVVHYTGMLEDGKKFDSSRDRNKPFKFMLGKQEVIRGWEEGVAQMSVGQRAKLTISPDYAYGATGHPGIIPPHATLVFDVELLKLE
Description: The inhibition of the prolyl peptidyl cis-trans isomerase activity of FKBP may be measured as an indicator of this affinity.
The cis-trans isomerization of an alanine-proline bond in a model substrate, N-succinyl-Ala-Ala-Pro-Phe-p-nitroanilide, is monitored spectrophotometrically in a chymotrypsin-coupled assay, which releases paranitroanilide from the trans form of the substrate. The inhibition of this reaction caused by the addition of different concentrations of inhibitor is determined, and the data is analyzed as a change in first-order rate constant as a function of inhibitor concentration to yield the apparent K1 values.
In a plastic cuvette are added […] of ice cold assay buffer (25 mM HEPES, pH 7.8, 100 mM NaCl), […] of FKBP (2.5 mM in 10 mM Tris-Cl pH 7.5, 100 mM NaCl, 1 mM dithiothreitol), […] of chymotrypsin (50 mg/ml in 1 mM HCl) and […] of test compound at various concentrations in dimethyl sulfoxide.

major pelvic ganglia [1] = test: nNOS immunoreactivity of right and left major pelvic ganglia after cavernous nerve crush; type: in vivo, Sprague-Dawley rats; details: FIG. 1; rat right cavernous nerve crush; 15 mg/kg i.p. just prior to nerve crush
Description: as §1

major pelvic ganglia [2] = test: Cresyl Violet staining of right and left major pelvic ganglia after cavernous nerve crush; type: in vivo, Sprague-Dawley rats; details: FIG. 2; rat right cavernous nerve crush
[3] = apparent Ki, rotamase inhibition, Table XLI, Formulas I to XIV, read-out: Ki
[4] = relative potency ranking, Table XLII, Formulas XV to XXIV, read-out: Ki
[5] = apparent Ki, rotamase inhibition, Table XLIII, Formulas XXV to XXIX, read-out: K1

## C=CC[C@@H]1/C=C(\C)C[C@H](C)C[C@H](OC)[C@H]2O[C@@](O)(C(=O)C(=O)N3CCCC[C@H]3C(=O)O[C@H](/C(C)=C/[C@@H]3CC[C@@H](O)[C@H](OC)C3)[C@H](C)[C@@H](O)CC1=O)[C@H](C)C[C@@H]2OC [FK506, reference compound]
Cavernous nerve
  ICP response, Control side: 36.9 +/− 7.7
  ICP response, Crush side: 32.0 +/− 6.7

## CC[C@@H]1/C=C(\C)[C@@H](O)[C@H](C)C[C@H](OC)[C@H]2O[C@@](O)(C(=O)C(=O)N3CCCC[C@H]3C(=O)O[C@H](/C(C)=C/[C@@H]3CC[C@@H](O)[C@H](OC)C3)[C@H](C)[C@@H](O)CC1=O)[C@H](C)C[C@@H]2OC [L-685,818]
Sciatic nerve
  nerve regeneration and morphological/functional recovery following sciatic nerve crush: as effective as FK506

## O=C(C(=O)N1CCC[C@H]1C(=O)SCCCCc1ccccc1)C1CCCCC1 [compound 33]
FKBP12; [3]
  pKi: 5.77

## CCC(C)(C)C(=O)C(=O)N1CCC[C@H]1C(=O)SCCCc1cccc2ccccc12 [compound 47]
FKBP12; [3]
  pKi: 7.68

## CCC(C)(C)C(=O)C(=O)N1CCC[C@H]1C(=O)OCCCc1ccc[n+]([O-])c1 [compound 95]
FKBP12; [3]
  pKi: 6.65

## CCC(C)CNC(=O)N1CCC[C@H]1C(=O)SCCCc1cccnc1 (stereo partly drawn) [compound 101, 3-(3-Pyridyl)-1-propylmercaptyl 2S-1-[(2-methylbutyl)carbamoyl]pyrrolidine-2-carboxylate]
FKBP12; [4]
  pKi: 7.30 to 9.00

## CCC(C)(C)NC(=O)N1CCC[C@H]1C(=O)SCCCc1cccnc1 [compound 102]
FKBP12; [4]
  pKi: 6.70 to 7.29

## COc1ccc(CCCSC(=O)C2CCCN2C(=S)NC2CCCCC2)cc1 (stereo not shown) [compound 105]
FKBP12; [4]
  pKi: 6.70 to 7.29

## CCC(C)(C)NC(=S)N1CCCC1C(=O)SCCCc1cccnc1 (stereo not shown) [compound 109]
FKBP12; [4]
  pKi: 7.30 to 9.00

## CCC(C)(C)NC(=O)N1CCCC1C(=O)SCCC(c1ccccc1)c1ccccc1 (stereo not shown) [compound 110]
FKBP12; [4]
  pKi: 7.30 to 9.00

## O=C(SC(CCc1ccccc1)CCc1ccccc1)C1CCCCN1C(=O)NC1CCCCC1 (stereo not shown) [compound 114]
FKBP12; [4]
  pKi: 7.30 to 9.00

## COc1ccc(CCCSC(=O)[C@@H]2CCCN2S(=O)(=O)c2ccccc2)cc1 [compound 120, 3-(para-Methoxyphenyl)-1-propylmercaptyl(2S)-N-(benzenesulfonyl)pyrrolidine-2-carboxylate]
FKBP12; [4]
  pKi: 6.70 to 7.29

## COc1ccc(CCCSC(=O)[C@@H]2CCCN2S(=O)(=O)Cc2ccccc2)cc1 [compound 121, 3-(para-Methoxyphenyl)-1-propylmercaptyl(2S)-N-(a-toluenesulfonyl)pyrrolidine-2-carboxylate]
FKBP12; [4]
  pKi: 6.70 to 7.29

## COc1ccc(CCCSC(=O)[C@@H]2CCCN2S(=O)(=O)c2ccc(C)cc2)cc1 [compound 122, 3-(para-Methoxyphenyl)-1-propylmercaptyl(2S)-N-(a-toluenesulfonyl)pyrrolidine-2-carboxylate]
FKBP12; [4]
  pKi: 6.30 to 6.70

## CCC(C)(C)C(=O)C(=O)N1CCC[C@H]1C(=O)OC/C=C/c1cc(OC)ccc1OC [compound 151, 3-(2,5-dimethoxyphenyl)-1-prop-2-(E)-enyl (2S)-1-(3,3-dimethyl-1,2-dioxopentyl)-2-pyrrolidine-carboxylate]
FKBP12; [5]
  pKi: 6.35

## CCC(C)(C)C(=O)C(=O)N1CCC[C@H]1C(=O)OCCCc1cccnc1 [compound 153, 3-(3-Pyridyl)-1-propyl (2S)-1-(3,3-dimethyl-1,2-dioxopentyl)-2-pyrrolidinecarboxylate]
Major pelvic ganglia [1]
  effect on the right and left major pelvic ganglia as processed for nNOS immunoreactivity: protective effect
Major pelvic ganglia [2]
  effect on the right and left major pelvic ganglia as processed for Cresyl Violet staining: protective effect
Cavernous nerve; Example 30, rats, 15 mg/kg i.p. just prior to nerve crush
  effect of administration on crushed cavernous nerves: regenerate the penile cavernous nerve
Cavernous nerve
  ICP response, Control side: 42.8 +/− 1.9
  ICP response, Crush side: 42.7 +/− 2.2

## CC1(C)COC(=O)CCCCCCCCCCCOC(=O)[C@@H]2CCCCN2C(=O)C1=O [compound 186, (24aS)-17,17-dimethylperhydropyrido[2,1-c] [1,9,4]dioxazacyclohenicosine-1,14,18,19-tetraone]
FKBP12; [5]
  pKi: 6.82

Source: patent US20030203890A1 (priority 2001, published 2003)
